Where two headings read alike, the source gives them in different places.
Key:
Test in all cases: Test C pre-/postemergence greenhouse test, plant response rating 0-100
Type in all cases: in vivo
[1] = tested on: Italian ryegrass (Lolium multiflorum); details: Lolium multiflorum; for pest or weed control at 62 g/ha: 62 g ai/ha; for pest or weed control at 125 g/ha: 125 g ai/ha; for pest or weed control at 250 g/ha: 250 g ai/ha; for pest or weed control at 500 g/ha: 500 g ai/ha
Method in brief: (§1)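 Visual 0–100 control scores, taken 13 to 15 days post-application in a greenhouse, reflect treatment preemergence (seed in loam soil with sand) or postemergence (2–18 cm plants in peat moss, vermiculite medium). A dash marks no result.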

[2] = tested on: blackgrass (Alopecurus myosuroides); details: Alopecurus myosuroides; for pest or weed control at 62 g/ha: 62 g ai/ha; for pest or weed control at 125 g/ha: 125 g ai/ha; for pest or weed control at 250 g/ha: 250 g ai/ha; for pest or weed control at 500 g/ha: 500 g ai/ha
Method in brief: as §1

[3] = tested on: corn (Zea mays); details: Zea mays; for Corn plant response rating (crop injury, 0 = no effect, 100 = complete kill) at 250 g/ha: 250 g ai/ha; for Corn plant response rating (crop injury, 0 = no effect, 100 = complete kill) at 500 g/ha: 500 g ai/ha
Method in brief: as §1

[4] = tested on: galium (catchweed bedstraw, Galium aparine); details: Galium; for pest or weed control at 62 g/ha: 62 g ai/ha; for pest or weed control at 125 g/ha: 125 g ai/ha; for pest or weed control at 250 g/ha: 250 g ai/ha; for pest or weed control at 500 g/ha: 500 g ai/ha
Method in brief: as §1

[5] = tested on: lambsquarters (Chenopodium album); details: Chenopodium album; for pest or weed control at 62 g/ha: 62 g ai/ha; for pest or weed control at 125 g/ha: 125 g ai/ha; for pest or weed control at 250 g/ha: 250 g ai/ha; for pest or weed control at 500 g/ha: 500 g ai/ha
Method in brief: as §1

[6] = tested on: large (Lg) crabgrass (Digitaria sanguinalis); details: Digitaria sanguinalis; for pest or weed control at 62 g/ha: 62 g ai/ha; for pest or weed control at 125 g/ha: 125 g ai/ha; for pest or weed control at 250 g/ha: 250 g ai/ha; for pest or weed control at 500 g/ha: 500 g ai/ha
Method in brief: as §1

[7] = tested on: morningglory (Ipomoea coccinea); details: Ipomoea; for pest or weed control at 62 g/ha: 62 g ai/ha; for pest or weed control at 125 g/ha: 125 g ai/ha; for pest or weed control at 250 g/ha: 250 g ai/ha; for pest or weed control at 500 g/ha: 500 g ai/ha
Method in brief: as §1

[8] = tested on: pigweed (Amaranthus retroflexus); details: Amaranthus retroflexus; for pest or weed control at 62 g/ha: 62 g ai/ha; for pest or weed control at 125 g/ha: 125 g ai/ha; for pest or weed control at 250 g/ha: 250 g ai/ha; for pest or weed control at 500 g/ha: 500 g ai/ha
Method in brief: as §1

[9] = tested on: ragweed (common ragweed, Ambrosia elatior); details: Ambrosia artemisiifolia; for pest or weed control at 62 g/ha: 62 g ai/ha; for pest or weed control at 125 g/ha: 125 g ai/ha; for pest or weed control at 250 g/ha: 250 g ai/ha; for pest or weed control at 500 g/ha: 500 g ai/ha
Method in brief: as §1

[10] = tested on: soybean (Glycine max); details: Glycine max; for plant injury at 62 g/ha: 62 g ai/ha; for plant injury at 125 g/ha: 125 g ai/ha; for plant injury at 250 g/ha: 250 g ai/ha; for plant injury at 500 g/ha: 500 g ai/ha
Method in brief: as §1

[11] = tested on: velvetleaf (Abutilon theophrasti); details: Abutilon theophrasti; for pest or weed control at 62 g/ha: 62 g ai/ha; for pest or weed control at 125 g/ha: 125 g ai/ha; for pest or weed control at 250 g/ha: 250 g ai/ha; for pest or weed control at 500 g/ha: 500 g ai/ha
Method in brief: as §1

[12] = tested on: yellow nutsedge (Cyperus esculentus); details: Cyperus; for pest or weed control at 62 g/ha: 62 g ai/ha; for pest or weed control at 125 g/ha: 125 g ai/ha; for pest or weed control at 250 g/ha: 250 g ai/ha; for pest or weed control at 500 g/ha: 500 g ai/ha
Method in brief: as §1

[13] = post-emergence, Postemergence, read-out: Plant response rating (0 to 100), Ryegrass, Italian
[14] = post-emergence, Postemergence, scale 0 to 100
[15] = pre-emergence, Preemergence, read-out: Plant response rating, Ryegrass, Italian
[16] = pre-emergence, Preemergence, read-out: Plant response rating, Blackgrass
[17] = post-emergence, Postemergence, read-out: Plant response rating (0 to 100), Galium
[18] = pre-emergence, Preemergence, read-out: Plant response rating, Galium
[19] = post-emergence, Postemergence, read-out: Plant response rating (0 to 100), Lambsquarters
[20] = pre-emergence, Preemergence, read-out: Plant response rating, Lambsquarters
[21] = post-emergence, Postemergence, read-out: Plant response rating (0 to 100), Crabgrass, Large
[22] = pre-emergence, Preemergence, read-out: Plant response rating, Crabgrass, Large
[23] = post-emergence, Postemergence, read-out: Plant response rating (0 to 100), Morningglory
[24] = pre-emergence, Preemergence, read-out: Plant response rating, Morningglory
[25] = post-emergence, Postemergence, read-out: Plant response rating (0 to 100), Pigweed
[26] = pre-emergence, Preemergence, read-out: Plant response rating, Pigweed
[27] = post-emergence, Postemergence, read-out: Plant response rating (0 to 100), Ragweed
[28] = pre-emergence, Preemergence, read-out: Plant response rating, Ragweed
[29] = post-emergence, Postemergence, read-out: Plant response rating (0 to 100), Soybean
[30] = pre-emergence, Preemergence, read-out: Plant response rating, Soybean
[31] = post-emergence, Postemergence, read-out: Plant response rating (0 to 100), Velvetleaf
[32] = pre-emergence, Preemergence, read-out: Plant response rating, Velvetleaf
[33] = post-emergence, Postemergence, read-out: Plant response rating (0 to 100), Nutsedge, Yellow
[34] = pre-emergence, Preemergence, read-out: Plant response rating, Nutsedge, Yellow

CCOC(OCC)(c1ccccc1)c1c[nH]nc1-c1cc(Cl)cc(Cl)c1 [Compound 14, 3-(3,5-dichlorophenyl)-4-(diethoxyphenylmethyl)-1H-pyrazole]
100%: pest or weed control at 250 g/ha [5, 14] | pest or weed control at 500 g/ha [5, 14] | pest or weed control at 62 g/ha [5, 20] | pest or weed control at 125 g/ha [5, 20] | pest or weed control at 250 g/ha ([5]; pre-emergence, Preemergence) | pest or weed control at 500 g/ha ([5]; pre-emergence, Preemergence) | pest or weed control at 250 g/ha [8, 14] | pest or weed control at 500 g/ha [8, 14] | pest or weed control at 125 g/ha [8, 26] | pest or weed control at 250 g/ha ([8]; pre-emergence, Preemergence) | pest or weed control at 500 g/ha ([8]; pre-emergence, Preemergence) | pest or weed control at 125 g/ha [9, 28] | pest or weed control at 250 g/ha ([9]; pre-emergence, Preemergence) | pest or weed control at 500 g/ha ([9]; pre-emergence, Preemergence)
85%: pest or weed control at 62 g/ha [8, 25] | pest or weed control at 500 g/ha [11, 14] | pest or weed control at 250 g/ha ([11]; pre-emergence, Preemergence)
10%: plant injury at 500 g/ha ([10]; pre-emergence, Preemergence)
70%: pest or weed control at 62 g/ha [5, 19] | pest or weed control at 125 g/ha [9, 27]
5%: pest or weed control at 500 g/ha [1, 14] | Corn plant response rating (crop injury, 0 = no effect, 100 = complete kill) at 250 g/ha [3, 14] | Corn plant response rating (crop injury, 0 = no effect, 100 = complete kill) at 500 g/ha [3, 14] | pest or weed control at 500 g/ha [7, 14]
80%: pest or weed control at 250 g/ha ([4]; pre-emergence, Preemergence) | pest or weed control at 500 g/ha [9, 14] | pest or weed control at 250 g/ha [11, 14]
40%: plant injury at 250 g/ha ([10]; pre-emergence, Preemergence)
60%: pest or weed control at 125 g/ha [4, 18] | pest or weed control at 62 g/ha [9, 27]
20%: pest or weed control at 125 g/ha [2, 16]
98%: pest or weed control at 125 g/ha [8, 25] | pest or weed control at 62 g/ha [8, 26] | pest or weed control at 500 g/ha ([11]; pre-emergence, Preemergence)
95%: pest or weed control at 125 g/ha [5, 19]
50%: pest or weed control at 62 g/ha [2, 16] | pest or weed control at 250 g/ha [4, 14] | pest or weed control at 125 g/ha [11, 32]
0%: pest or weed control at 62 g/ha [1, 13] | pest or weed control at 125 g/ha [1, 13] | pest or weed control at 250 g/ha [1, 14] | pest or weed control at 62 g/ha [1, 15] | pest or weed control at 125 g/ha [1, 15] | pest or weed control at 250 g/ha ([1]; pre-emergence, Preemergence) | pest or weed control at 500 g/ha ([1]; pre-emergence, Preemergence) | pest or weed control at 62 g/ha ([2]; post-emergence, Postemergence, read-out: Plant response rating (0 to 100), Blackgrass) | pest or weed control at 125 g/ha ([2]; post-emergence, Postemergence, scale 0 to 100, read-out: Plant response rating, Blackgrass) | pest or weed control at 250 g/ha [2, 14] | pest or weed control at 500 g/ha [2, 14] | pest or weed control at 250 g/ha ([2]; pre-emergence, Preemergence) | plant injury at 62 g/ha ([3]; post-emergence, Postemergence, 62 g ai/ha) | plant injury at 125 g/ha ([3]; post-emergence, Postemergence, 125 g ai/ha) | Corn plant response rating (crop injury, 0 = no effect, 100 = complete kill) at 62 g/ha ([3]; pre-emergence, Preemergence, 62 g ai/ha) | Corn plant response rating (crop injury, 0 = no effect, 100 = complete kill) at 125 g/ha ([3]; pre-emergence, Preemergence, 125 g ai/ha) | Corn plant response rating (crop injury, 0 = no effect, 100 = complete kill) at 250 g/ha ([3]; pre-emergence, Preemergence) | Corn plant response rating (crop injury, 0 = no effect, 100 = complete kill) at 500 g/ha ([3]; pre-emergence, Preemergence) | pest or weed control at 62 g/ha [4, 17] | pest or weed control at 62 g/ha [4, 18] | pest or weed control at 500 g/ha ([4]; pre-emergence, Preemergence) | pest or weed control at 62 g/ha [6, 21] | pest or weed control at 125 g/ha [6, 21] | pest or weed control at 250 g/ha [6, 14] | pest or weed control at 500 g/ha [6, 14] | pest or weed control at 62 g/ha [6, 22] | pest or weed control at 125 g/ha [6, 22] | pest or weed control at 250 g/ha ([6]; pre-emergence, Preemergence) | pest or weed control at 500 g/ha ([6]; pre-emergence, Preemergence) | pest or weed control at 62 g/ha [7, 23] | pest or weed control at 125 g/ha [7, 23] | pest or weed control at 250 g/ha [7, 14] | pest or weed control at 62 g/ha [7, 24] | pest or weed control at 125 g/ha [7, 24] | pest or weed control at 250 g/ha ([7]; pre-emergence, Preemergence) | pest or weed control at 500 g/ha ([7]; pre-emergence, Preemergence) | plant injury at 62 g/ha [10, 29] | plant injury at 125 g/ha [10, 29] | plant injury at 250 g/ha [10, 14] | plant injury at 500 g/ha [10, 14] | plant injury at 62 g/ha [10, 30] | pest or weed control at 62 g/ha [12, 33] | pest or weed control at 125 g/ha [12, 33] | pest or weed control at 250 g/ha [12, 14] | pest or weed control at 500 g/ha [12, 14] | pest or weed control at 62 g/ha [12, 34] | pest or weed control at 125 g/ha [12, 34] | pest or weed control at 250 g/ha ([12]; pre-emergence, Preemergence) | pest or weed control at 500 g/ha ([12]; pre-emergence, Preemergence)
45%: pest or weed control at 500 g/ha [4, 14]
75%: pest or weed control at 250 g/ha [9, 14] | pest or weed control at 62 g/ha [9, 28] | pest or weed control at 62 g/ha [11, 31] | pest or weed control at 125 g/ha [11, 31] | pest or weed control at 62 g/ha [11, 32]
35%: plant injury at 125 g/ha [10, 30]
30%: pest or weed control at 500 g/ha ([2]; pre-emergence, Preemergence) | pest or weed control at 125 g/ha [4, 17]
